# Several values for one entry are separate records, joined by “and”; a condition that tells them apart may be missing. Equal entries are not always repeated.
# Columns and labels:
# Type in all cases: in vivo
# [1] = tested on: oxazolone induced contact dermatitis (erythema); assay: Test C: oxazolone induced contact dermatitis in the domestic pig
# Description: (c) in a standard test involving oxazolone induced contact dermatitis in the domestic pig (Test C).
# Method: Domestic pigs were sensitised by topical application of 0.4 ml of a 10% w/v solution of oxazolone in acetone to the neck region on two occasions two weeks apart. Six paired sites were then prepared and delineated with one site from each pair to the left and one to the right of the mid-line of the back of the animal. […] The left hand site of the second three pairs was similarly treated with 0.05 ml of a second solution of the test compound in acetone at pH 5. All of the righthand sites were used as controls and were treated with 0.05 ml of acetone (acidified to pH 5 with citric acid). After 24 hours, the same treatment was repeated followed immediately by a challenge of 0.025 ml of a 1% w/v solution of oxazolone in acetone to the 1st and 4th pairs of sites, of 5% w/v solution of oxazolone in acetone to the 2nd and 5th pair of sites, and of 10% w/v solution of oxazolone in acetone to the 3rd and 6th pairs of sites. […] An inflammatory index was obtained by multiplying the area and erythema readings together. By comparison of the values for the treated and control sites, the percentage reduction in erythema of the test compound could be assessed.
# cardiovasculature = assay: adverse effects on the cardiovasculature after topical administration; conditions: large doses administered topically to the skin
# [2] = tested on: inflammation on the mouse ear induced by the irritant, croton oil; assay: Test A: inhibition of inflammation on the mouse ear induced by croton oil; conditions: for % Inhibition / % increase in ear weight ± SEM / ED50 application rate: topical; for % Inhibition / % increase in ear weight ± SEM: 4 hours; for ED50 application rate: Test A; for activity as topical anti-inflammatory agent: application rate of 250 micrograms/ear
# Description: (a) in a standard test involving the inhibition of inflammation on the mouse ear induced by the irritant, croton oil (Test A);
# (a) Method: Groups of mice were dosed with an acetone solution of test compound or vehicle (acetone) pre-mixed with an equal volume of 4% w/v croton oil in acetone topically to the right ear (10 μl volume). Four hours later, the animals were killed and both the left (control) and right (treated) ears were removed and weighed. The percentage increase in ear weight of the treated against control was then calculated. The anti-inflammatory activity was finally expressed as percentage inhibition for the test compound dosed group in comparison with the vehicle dosed control group.
# [3] = tested on: delayed hypersensitivity reaction to the contact irritant oxazolone; assay: Test B: inhibition of the delayed hypersensitivity reaction to oxazolone in mice; conditions: for Inhibition: 24 hours, free base in acidified acetone pH 5
# Description: (b) in a standard test involving the inhibition of the delayed hypersensitivity reaction to the contact irritant, 4-ethoxymethylene-2-phenyloxazolone (hereinafter referred to as oxazolone) in mice (Test B); and
# (a) Method: Mice were sensitised by the topical application of a 10 μl portion of a 0.5% w/v solution of oxazolone in acetone. After 7 days, a 10 μl portion of a solution of the test compound in acetone (acidified to pH 5 with citric acid*) or, for control purposes, just the acidified acetone vehicle, was applied to the right ears of the mice and immediately followed by an application of 10 μl of 0.5% w/v solution of oxazolone in acetone. After 24 hours the animals were killed, the ears removed and results calculated as for Test A above.
# *Note: acidified acetone was used to eliminate any possible reaction between the basic test compound of formula I and the oxazolone.]
# [4] = Average of experiments 1-3, 2% w/v in acetone pH 5
# [5] = Experiment 1, 2% w/v in acetone pH 5, listed as (-)-optically active (S) form
# [6] = Experiment 2, 2% w/v in acetone pH 5
# [7] = Experiment 3, 2% w/v in acetone pH 5
# [8] = cream formulation II, 0.25% w/w
# [9] = 1% w/v in aqueous ethanol containing 40% w/v N-methylpyrrolidone
compound,measurement,setting,value
"CC(C)C(=O)NCCNCC(O)COc1ccccc1 (racemic) [compound of formula I, N-(2-[2-hydroxy-3-phenoxypropyl]aminoethyl)isobutyramide]",overt toxic or adverse effects,[1]; during Test C,no overt toxic or adverse effects were observed
same,adverse effects on the cardiovasculature,cardiovasculature,no adverse effects on the cardiovasculature
"CC(C)C(=O)NCCNCC(O)COc1ccccc1 (racemic) [racemate, N-(2-[2-hydroxy-3-phenoxypropyl]aminoethyl)isobutyramide]",% Inhibition,[2]; 2.5 μg/ear,25.6%
same,% increase in ear weight ± SEM,[2]; 2.5 μg/ear,59.1 ± 5.92%
same,% Inhibition,[2]; 25 μg/ear,49.3%
same,% increase in ear weight ± SEM,[2]; 25 μg/ear,40.2 ± 4.88%
same,% Inhibition,[2]; 250 μg/ear,61.8%
same,% increase in ear weight ± SEM,[2]; 250 μg/ear,30.3 ± 4.0%
same,ED50 application rate,[2],44 micrograms/ear
"CC(C)C(=O)NCCNC[C@H](O)COc1ccccc1 [(-)-(S) form, (-)-N-(2-[2-hydroxy-3-phenoxypropyl]aminoethyl)isobutyramide]",% Inhibition,[2]; 4.9 μg/ear,23.8%
same,% increase in ear weight ± SEM,[2]; 4.9 μg/ear,65.2 ± 3.17%
same,% Inhibition,[2]; 14.8 μg/ear,46.5%
same,% increase in ear weight ± SEM,[2]; 14.8 μg/ear,45.8 ± 3.96%
same,% Inhibition,[2]; 44.4 μg/ear,52.2%
same,% increase in ear weight ± SEM,[2]; 44.4 μg/ear,40.9 ± 4.02%
same,% Inhibition,[2]; 133.3 μg/ear,66.5%
same,% increase in ear weight ± SEM,[2]; 133.3 μg/ear,28.6 ± 3.56%
same,% Inhibition,[2]; 400 μg/ear,91.8%
same,% increase in ear weight ± SEM,[2]; 400 μg/ear,7.0 ± 1.25%
same,ED50 application rate,[2],29 micrograms/ear
same,Inhibition,[3]; 2.5 μg/ear,20 ± 8%
same,Inhibition,[3]; 25 μg/ear,35 ± 9%
same,Inhibition,[3]; 250 μg/ear,60 ± 7%
same,ED50,[3]; calculated from the dose-inhibition table,91 μg/ear
same,% of sites in which erythema is inhibited by 30%,[1]; [4],71%
same,% of sites in which erythema is inhibited by 50%,[1]; [4],53%
same,% of sites in which erythema is inhibited by 70%,[1]; [4],16%
same,% of sites in which erythema is inhibited by 30%,[1]; [5],80% and 73%
same,% of sites in which erythema is inhibited by 50%,[1]; [5],60% and 36%
same,% of sites in which erythema is inhibited by 30%,[1]; [6],50%
same,% of sites in which erythema is inhibited by 50%,[1]; [6],50%
same,% of sites in which erythema is inhibited by 70%,[1]; [6],17%
same,% of sites in which erythema is inhibited by 30%,[1]; [7],83%
same,% of sites in which erythema is inhibited by 50%,[1]; [7],67%
same,% of sites in which erythema is inhibited by 70%,[1]; [7],17%
same,% of sites in which erythema is inhibited by 30%,[1]; [8],86%
same,% of sites in which erythema is inhibited by 50%,[1]; [8],29%
same,% of sites in which erythema is inhibited by 70%,[1]; [8],14%
same,% of sites in which erythema is inhibited by 30%,"[1]; cream formulation II, 0.5% w/w",86%
same,% of sites in which erythema is inhibited by 50%,"[1]; cream formulation II, 0.5% w/w",29%
same,% of sites in which erythema is inhibited by 70%,"[1]; cream formulation II, 0.5% w/w",29%
same,% of sites in which erythema is inhibited by 30%,"[1]; cream formulation II, 1% w/w",88%
same,% of sites in which erythema is inhibited by 50%,"[1]; cream formulation II, 1% w/w",75%
same,% of sites in which erythema is inhibited by 70%,"[1]; cream formulation II, 1% w/w",50%
same,% of sites in which erythema is inhibited by 30%,"[1]; cream formulation II, 2% w/w",100%
same,% of sites in which erythema is inhibited by 50%,"[1]; cream formulation II, 2% w/w",80%
same,% of sites in which erythema is inhibited by 70%,"[1]; cream formulation II, 2% w/w",80%
"CCCCC(=O)O[C@]1(C(=O)CO)[C@@H](C)C[C@H]2[C@@H]3CCC4=CC(=O)C=C[C@]4(C)[C@@]3(F)[C@@H](O)C[C@@]21C [BV, betamethasone-17-valerate, reference compound]",% of sites in which erythema is inhibited by 30%,[1]; [9],75%
same,% of sites in which erythema is inhibited by 50%,[1]; [9],38%
same,% of sites in which erythema is inhibited by 70%,[1]; [9],25%
"C[C@]12CCC(=O)C=C1CC[C@@H]1[C@@H]2[C@@H](O)C[C@@]2(C)[C@H]1CC[C@]2(O)C(=O)CO [hydrocortisone, reference compound]",Inhibition,"[2]; similar test conditions, 25 μg/ear",approximately 70%
same,% of sites in which erythema is inhibited by 30%,[1]; [9],67%
same,% of sites in which erythema is inhibited by 50%,[1]; [9],28%
same,% of sites in which erythema is inhibited by 70%,[1]; [9],6%
"CC(C)NCC(O)COc1cccc2ccccc12 (stereo not drawn) [propranolol, reference compound]",activity as topical anti-inflammatory agent,[2],inactive
CC(C)C(=O)NCCNC[C@@H](O)COc1ccccc1 [reference compound],activity as topical anti-inflammatory agent,[2],inactive
"O=C(NCCNCC(O)COc1ccc(O)cc1)N1CCOCC1 (stereo not drawn) [xamoterol, reference compound]",activity as topical anti-inflammatory agent,[2],inactive

# From patent publication US4764361A, “Pharmaceutical compositions” (Imperial Chemical Industries PLC, priority 1987, dated 1988)
